Measurements from patent US20250249045A1, “COMPOSITIONS AND METHODS RELATED TO EXTRACELLULAR VESICLE THERAPEUTIC DELIVERY PLATFORM” (priority 2022, published 2025).

What was measured:
SARS-CoV-2 pseudovirus [1] = test system: SARS-CoV-2 pseudovirus; parameters: species or system mice; settings: mouse
SARS-CoV-2 pseudovirus [2] = type: cell-based

Question: Which “pseudovirus signals in lung, ex-vivo fluorescence imaging” value (SARS-CoV-2 pseudovirus [1]) does the source give for rhACE2 here?
Answer: failed to block SARS-CoV-2 pseudovirus entry

Question: What about the “entry of SARS-CoV-2 pseudovirus into ACE2-expressing A549 cells” value (SARS-CoV-2 pseudovirus [2]) of the same substance?
Answer: efficiently blocked the infection

Question: What about the “pseudovirus neutralization by flow cytometry” value (SARS-CoV-2 pseudovirus [2]) of the same substance?
Answer: efficiently neutralized
